Assay results as given in patent publication US9469652B2, “ERK inhibitors” (Eli Lilly and Company, priority 2014, dated 2016).

Assays:
[1] = test system: human colorectal cancer cells COLO-205; assay: Xenograft tumor model COLO-205; format: in vivo, female athymic nude mice; conditions: oral gavage; for Delta T/C % or Regr %: negative = regression
Method: (§1) The purpose of this assay is to measure reduction in tumor volume in response to test compound administration. Expand human colorectal cancer cells HCT116 (ATCC, # CCL-247) in culture, harvest and inject 5×10e^6 cells in 200 μL of 1:1 HBSS+matrigel solution subcutaneously on to the rear right flank of female athymic nude mice (22-25 g, Harlan Laboratories). Expand human pancreatic cancer cells MIA PACA-2 (ATCC, # CRL-1420) or human non-small cell lung cancer cells CALU-6 (ATCC, #HTB-56) or human colorectal cancer cells COLO-205 (ATCC, #CCL-222) in culture, harvest and inject 5×10e^6 cells in 200 μL of 1:1 HBSS+matrigel solution subcutaneously on to the rear right flank of female athymic nude mice (22-25 g, Harlan Laboratories). Measure tumor growth and body weight twice per week beginning the seventh day after the implantation. When tumor sizes reach 200-400 mm^3, randomize animals and group into groups of eight to ten animals. Prepare test compound in an appropriate vehicle (vehicle: 1% HEC/0.25% Tween 80/0.05% Antifoam) and administer by oral gavage for 14 to 21 days. Tumor response is determined by tumor volume measurement performed twice a week during the course of treatment. Body weight is taken as a general measure of toxicity.
(§2) A compound within the scope of invention is tested in this assay run substantially as above.

[2] = test system: human non-small cell lung cancer cells NCI-H2122 (KRAS_G12C); assay: In vivo combination study, NCI-H2122 NSCLC xenograft model; design: species or system female athymic nude mice; conditions: single agent
Method: (§3) More specifically, the compound of Example 1 is tested in combination with either the pan-RAF inhibitor compound or the CDK4/6 inhibitor compound in HCT116, a KRAS mutant colorectal cancer xenograft model. Also, the compound of Example 1 is tested in combination with either the CDK4/6 inhibitor compound or DC101 in NCI-H441, A549, and NCI-H2122, KRAS mutant non-small cell lung cancer (NSCLC) xenograft models.
(§4) Combination efficacy is also tested in three KRAS mutant NSCLC xenograft models including A549 (KRAS_G12S) in SCID mice as well as NCI-H441 (KRAS_G12V) and NCI-H2122 (KRAS_G12C) in athymic nude mice. Expand human non-small cell lung cancer cells NCI-H441 (ATCC, #CRL-5807) and NCI-H2122 (ATCC, #CRL-5985) in culture, harvest and inject 5×10e^6 cells in 200 μL of 1:1 HBSS+matrigel solution subcutaneously on to the rear right flank of female athymic nude mice (20-22 gm, Harlan Laboratories). Expand human non-small cell lung cancer cells A549 (ATCC, #CC1-185) in culture, harvest and inject 5×10e^6 cells in 200 μL of 1:1 HBSS+matrigel solution subcutaneously on to the rear right flank of female CB-17 SCID mice (18-20 gm, Taconic Farms). For all cell lines, measure tumor growth and body weight twice per week beginning the seventh day after the implantation. When average tumor sizes reach 200-300 mm^3, randomize animals and group into groups of five to seven animals. Prepare test compound in an appropriate vehicle (see below) and administer by oral gavage (compound of Example 1 and the CDK4/6 inhibitor compound) or intraperitoneally (DC101) for 21 to 28 days. Tumor response is determined by tumor volume measurement performed twice a week during the course of treatment. Vehicle used in these studies is 1% HEC/0.25% Tween® 80/0.05% Antifoam. The compound of Example 1 is formulated in 1% HEC/0.25% Tween® 80/0.05% Antifoam and the CDK4/6 inhibitor compound is formulated in 1% HEC in 25 mM sodium phosphate buffer, pH 2. […] In the same NCI-H441 xenograft model, DC101 in phosphate buffer is also administered intraperitoneally twice per week (BIW) as a single agent or in combination with the compound of Example 1, 50 mpk, QD for 28 days.

[3] = test system: human non-small cell lung cancer cells A549 (KRAS_G12S); assay: In vivo combination study, A549 NSCLC xenograft model; design: species or system female CB-17 SCID mice; conditions: single agent
Method: as §3, §4

[4] = test system: human colorectal cancer cells HCT116; assay: In vivo combination study, HCT116 KRAS mutant colorectal cancer xenograft model; conditions: oral, 28 days, single agent
Method: as §3
The HCT116 combination efficacy study is done in athymic nude rats. Expand human colorectal cancer cells HCT116 (ATCC, #CCL-247) in culture, harvest and inject 5×10e^6 cells in 200 μL of 1:1 HBSS+matrigel solution subcutaneously on to the rear right flank of female NIH nude rats (120-145 gm, Taconic Farms). Measure tumor growth and body weight twice per week beginning the seventh day after the implantation. When average tumor sizes reach 200-300 mm^3, randomize animals and group into groups of five to seven animals. Prepare test compound in an appropriate vehicle (see below) and administer by oral gavage for 21 to 28 days. Tumor response is determined by tumor volume measurement performed twice a week during the course of treatment. Vehicle used in this study is 1% HEC (hydroxy ethyl cellulose)/0.25% Tween® 80/0.05% Antifoam. The compound of Example 1 and the pan-RAF inhibitor compound are formulated in 1% HEC/0.25% Tween® 80/0.05% Antifoam. The CDK4/6 inhibitor compound is formulated in 1% HEC in 25 mM Sodium phosphate buffer, pH 2.

[5] = test system: human pancreatic cancer cells MIA PACA-2; assay: Xenograft tumor model MIA PACA-2; format: in vivo, female athymic nude mice; conditions: oral gavage; for Delta T/C % or Regr %: negative = regression
Method: as §1, §2

With `Cn1nccc1Nc1nccc(-c2cc3c(s2)C(C)(C)N(CCN2CCOCC2)C3=O)n1` [Example 1, 6,6-Dimethyl-2-{2-[(1-methyl-1H-pyrazol-5-yl)amino]pyrimidin-4-yl}-5-[2-(morpholin-4-yl)ethyl]-5,6-dihydro-4H-thieno[2,3-c]pyrrol-4-one] the TGI % ([1]; 12.5 mg/kg QD) was 119%, the “Delta T/C % or Regr %” value ([1]; 12.5 mg/kg QD) was −19% and the TGI % ([1]; 25 mg/kg QD) was 132%. For the same compound, the “Delta T/C % or Regr %” value ([1]; 25 mg/kg QD) was −32%, the TGI % ([1]; 100 mg/kg QD) was 176% and the “Delta T/C % or Regr %” value ([1]; 100 mg/kg QD) was −76%. For the same compound, the “Delta T/C %” value ([2]; 50 mg/kg QD, oral, 28 days) was 59%, the tumor growth inhibition ([2]; 50 mpk) was 41% and the “Delta T/C %” value ([3]; 50 mg/kg QD, oral, 28 days) was 9%. For the same compound, the tumor growth inhibition ([3]; 50 mpk) was 91%, the “Delta T/C %” value ([4]; 10 mg/kg QD) was 48% and the TGI % ([4]; 10 mg/kg QD) was 52%. For the same compound, the “Delta T/C %” value ([4]; 20 mg/kg QD) was 36%, the TGI % ([4]; 20 mg/kg QD) was 64% and the TGI % ([5]; 12.5 mg/kg QD) was 68%. The “Delta T/C % or Regr %” value ([5]; 12.5 mg/kg QD) was 32%, the TGI % ([5]; 25 mg/kg QD) was 98% and the “Delta T/C % or Regr %” value ([5]; 25 mg/kg QD) was 2%. The TGI % ([5]; 50 mg/kg QD) was 122%, the “Delta T/C % or Regr %” value ([5]; 50 mg/kg QD) was −22% and the TGI % ([5]; 100 mg/kg QD) was 166%. The “Delta T/C % or Regr %” value ([5]; 100 mg/kg QD) was −66%.
